Reference: US8952024B2, “Herbicidal pyrimidone derivatives” (E I du Pont de Nemours and Company, priority 2009, dated 2015)

Key:
Assay in all cases: Test D pre-/postemergence plant response
Type in all cases: in vivo
[1] = test system: groundsel (common groundsel, Senecio vulgaris); conditions: Postemergence
Method in brief: (§1)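 Scores (0 no effect, 100 complete control) reflect visual assessment against untreated plants after 14 to 21 days. Treatments were pre- and postemergence sprays in solvent with surfactant.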

[2] = test system: bermudagrass (Cynodon dactylon)
Method in brief: as §1

[3] = test system: prickly sida (Sida spinosa)
Method in brief: as §1

[4] = test system: field bindweed (Convolvulus arvensis)
Method in brief: as §1

[5] = test system: ragweed (common ragweed, Ambrosia elatior)
Method in brief: as §1

[6] = test system: Italian ryegrass (Lolium multiflorum)
Method in brief: as §1

[7] = test system: johnsongrass (Sorghum halepense)
Method in brief: as §1

[8] = test system: bluegrass (annual bluegrass, Poa annua)
Method in brief: as §1

[9] = test system: naked crabgrass (Digitaria nuda)
Method in brief: as §1

[10] = test system: quackgrass (Elytrigia repens)
Method in brief: as §1

[11] = test system: green foxtail (Setaria viridis)
Method in brief: as §1

[12] = test system: dayflower (Virginia (VA) dayflower, Commelina virginica)
Method in brief: as §1

[13] = test system: mallow (common mallow, Malva sylvestris)
Method in brief: as §1

[14] = test system: goosegrass (Eleusine indica)
Method in brief: as §1

[15] = test system: sandbur (southern sandbur, Cenchrus echinatus)
Method in brief: as §1

[16] = Postemergence, 16 g ai/ha, scale 0 to 100
[17] = Postemergence, 31 g ai/ha, scale 0 to 100 (0 no effect, 100 complete control)
[18] = Postemergence, 125 g ai/ha, scale 0 to 100 (0 no effect, 100 complete control)
[19] = Postemergence, 62 g ai/ha, scale 0 to 100 (0 no effect, 100 complete control)
[20] = Preemergence, 16 g ai/ha, scale 0 to 100, 0 no effect, 100 complete control
[21] = Preemergence, 31 g ai/ha, scale 0 to 100 (0 no effect, 100 complete control)
[22] = Preemergence, 62 g ai/ha, scale 0 to 100
[23] = Preemergence, 125 g ai/ha, scale 0 to 100
[24] = Postemergence, 31 g ai/ha, scale 0 to 100

Compound: O=C1CCCC(O)=C1C(=O)c1cnc(-c2cccnc2)n(-c2ccccc2)c1=O [Compound 113, 5-[(2-hydroxy-6-oxo-1-cyclohexen-1-yl)carbonyl]-3-phenyl-2-(3-pyridinyl)-4(3H)-pyrimidone]
- Plant response rating, Groundsel ([1]; 16 g ai/ha, scale 0 to 100): 90
- Plant response rating, Groundsel ([1]; 31 g ai/ha, scale 0 to 100): 90
- Plant response rating, Groundsel ([1]; 125 g ai/ha, scale 0 to 100 (0 no effect, 100 complete control)): 100
- Plant response rating, Groundsel ([1]; 62 g ai/ha, scale 0 to 100 (0 no effect, 100 complete control)): 100
- Plant response rating, Bermudagrass [2, 16]: 65
- Plant response rating, Bermudagrass [2, 17]: 70
- Plant response rating, Bermudagrass [2, 18]: 80
- Plant response rating, Bermudagrass [2, 19]: 80
- Plant response rating, Bermudagrass [2, 20]: 50
- Plant response rating, Bermudagrass [2, 21]: 50
- Plant response rating, Bermudagrass [2, 22]: 70
- Plant response rating, Bermudagrass [2, 23]: 85
- Plant response rating, Prickly Sida [3, 16]: 50
- Plant response rating, Prickly Sida [3, 24]: 60
- Plant response rating, Prickly Sida [3, 18]: 70
- Plant response rating, Prickly Sida [3, 19]: 70
- Plant response rating, Prickly Sida [3, 20]: 0
- Plant response rating, Prickly Sida [3, 21]: 35
- Plant response rating, Prickly Sida [3, 22]: 70
- Plant response rating, Prickly Sida [3, 23]: 90
- Plant response rating, Field Bindweed [4, 16]: 50
- Plant response rating, Field Bindweed [4, 24]: 65
- Plant response rating, Field Bindweed [4, 19]: 65
- Plant response rating, Field Bindweed [4, 20]: 0
- Plant response rating, Field Bindweed [4, 21]: 20
- Plant response rating, Field Bindweed [4, 22]: 65
- Plant response rating, Field Bindweed [4, 23]: 90
- Plant response rating, Ragweed [5, 16]: 70
- Plant response rating, Ragweed [5, 24]: 70
- Plant response rating, Ragweed [5, 18]: 80
- Plant response rating, Ragweed [5, 19]: 75
- Plant response rating, Ragweed [5, 20]: 0
- Plant response rating, Ragweed [5, 21]: 50
- Plant response rating, Ragweed [5, 23]: 98
- Plant response rating, Ryegrass, Italian [6, 16]: 0
- Plant response rating, Ryegrass, Italian [6, 24]: 20
- Plant response rating, Ryegrass, Italian [6, 18]: 50
- Plant response rating, Ryegrass, Italian [6, 19]: 35
- Plant response rating, Ryegrass, Italian [6, 20]: 0
- Plant response rating, Ryegrass, Italian [6, 21]: 0
- Plant response rating, Ryegrass, Italian [6, 23]: 20
- Plant response rating, Ryegrass, Italian ([6]; Preemergence, rate not given, scale 0 to 100, 0 no effect, 100 complete control): 0
- Plant response rating, Johnsongrass [7, 16]: 40
- Plant response rating, Johnsongrass [7, 24]: 40
- Plant response rating, Johnsongrass [7, 18]: 75
- Plant response rating, Johnsongrass [7, 19]: 65
- Plant response rating, Johnsongrass [7, 20]: 0
- Plant response rating, Johnsongrass [7, 21]: 0
- Plant response rating, Johnsongrass [7, 22]: 10
- Plant response rating, Johnsongrass [7, 23]: 10
- Plant response rating, Bluegrass [8, 16]: 0
- Plant response rating, Bluegrass [8, 17]: 0
- Plant response rating, Bluegrass [8, 18]: 0
- Plant response rating, Bluegrass [8, 19]: 0
- Plant response rating, Bluegrass [8, 20]: 0
- Plant response rating, Bluegrass [8, 21]: 0
- Plant response rating, Bluegrass [8, 22]: 0
- Plant response rating, Bluegrass [8, 23]: 0
- Plant response rating, Crabgrass, Naked [9, 16]: 50
- Plant response rating, Crabgrass, Naked [9, 24]: 65
- Plant response rating, Crabgrass, Naked [9, 18]: 75
- Plant response rating, Crabgrass, Naked [9, 19]: 70
- Plant response rating, Crabgrass, Naked [9, 20]: 0
- Plant response rating, Crabgrass, Naked [9, 21]: 0
- Plant response rating, Crabgrass, Naked [9, 22]: 90
- Plant response rating, Crabgrass, Naked [9, 23]: 100
- Plant response rating, Quackgrass [10, 16]: 0
- Plant response rating, Quackgrass [10, 24]: 0
- Plant response rating, Quackgrass [10, 18]: 30
- Plant response rating, Quackgrass [10, 19]: 20
- Plant response rating, Quackgrass [10, 20]: 0
- Plant response rating, Quackgrass [10, 21]: 0
- Plant response rating, Quackgrass [10, 23]: 0
- Plant response rating, Foxtail, Green [11, 16]: 25
- Plant response rating, Foxtail, Green [11, 24]: 60
- Plant response rating, Foxtail, Green [11, 18]: 90
- Plant response rating, Foxtail, Green [11, 19]: 70
- Plant response rating, Foxtail, Green [11, 20]: 0
- Plant response rating, Foxtail, Green [11, 21]: 0
- Plant response rating, Foxtail, Green [11, 22]: 0
- Plant response rating, Foxtail, Green [11, 23]: 20
- Plant response rating, Dayflower, VA [12, 16]: 20
- Plant response rating, Dayflower, VA [12, 24]: 40
- Plant response rating, Dayflower, VA [12, 18]: 60
- Plant response rating, Dayflower, VA [12, 19]: 60
- Plant response rating, Dayflower, VA [12, 20]: 50
- Plant response rating, Dayflower, VA [12, 21]: 50
- Plant response rating, Dayflower, VA [12, 22]: 50
- Plant response rating, Dayflower, VA [12, 23]: 65
- Plant response rating, Mallow [13, 16]: 0
- Plant response rating, Mallow [13, 24]: 0
- Plant response rating, Mallow [13, 18]: 20
- Plant response rating, Mallow [13, 19]: 0
- Plant response rating, Mallow [13, 20]: 0
- Plant response rating, Mallow [13, 21]: 5
- Plant response rating, Mallow [13, 22]: 5
- Plant response rating, Mallow [13, 23]: 90
- Plant response rating, Goosegrass [14, 16]: 40
- Plant response rating, Goosegrass [14, 24]: 50
- Plant response rating, Goosegrass [14, 18]: 65
- Plant response rating, Goosegrass [14, 19]: 65
- Plant response rating, Goosegrass [14, 20]: 25
- Plant response rating, Goosegrass [14, 21]: 25
- Plant response rating, Goosegrass [14, 22]: 75
- Plant response rating, Goosegrass [14, 23]: 95
- Plant response rating, Sandbur [15, 16]: 5
- Plant response rating, Sandbur [15, 24]: 10
- Plant response rating, Sandbur [15, 18]: 60
- Plant response rating, Sandbur [15, 19]: 60
- Plant response rating, Sandbur [15, 20]: 0
- Plant response rating, Sandbur [15, 21]: 0
- Plant response rating, Sandbur [15, 23]: 90
